Experimental findings from US20260317319A1, “NOVEL ERGOLINES AND METHODS OF TREATING MOOD DISORDERS” (Gilgamesh Pharma Inc., priority 2023, published 2026) are described below.

Where two headings read alike, the source gives them in different places. A value given as a limit tells only on which side of the number the result lay.

The target in data set [1] is T1, 5-HT2A receptor (Homo sapiens, UniProt P28223). Nature of the data set: cell-based. Also on record: expressed in transfected cells; host or cells: HEK293, stably transfected. To be noted: Ca2+ flux; for Emax: HEK293, agonist, HEK293, max dose, read-out: 5-HT2A % Act @ Max Dose; for EC50: agonist, HEK293. The class given is cell-based. The procedure: (§1) Functional Assays at 5-HT2A, 5-HT2B, and 5-HT1A. Agonist activity at 5-HT2A, 5-HT2B, 5HT2C and 5-HT1A receptors was determined using a FLIPR Ca^2+ flux assay at WuXi AppTec (Hong Kong) Limited according to their standard protocols. Briefly, stably transfected cells expressing the receptor of interest and Gα15 in the case of 5-HT1A (HEK293 for 5-HT2A and 5-HT2B; CHO cells for 5-HT1A) were grown and plated in a 384 well plate and incubated at 37° C. and 5% CO2 overnight. A solution of 250 mM probenecid in 1 mL FLIPR assay buffer was prepared fresh. This was combined with a fluorescent dye (Fluo-4 Direct™) to make a final assay concentration of 2.5 mM. […] The fluorescent dye was then added to the assay plate along with assay buffer to a final volume of 40 μL. The cell plate was incubated for 50 min at 37° C. and 5% CO2 and placed into the FLIPR Tetra along with the compound plate. 10 μL of references and compounds were then transferred from the compound plate into the cell plate and the fluorescent signal was read.
T1 sequence (P28223 whole entry): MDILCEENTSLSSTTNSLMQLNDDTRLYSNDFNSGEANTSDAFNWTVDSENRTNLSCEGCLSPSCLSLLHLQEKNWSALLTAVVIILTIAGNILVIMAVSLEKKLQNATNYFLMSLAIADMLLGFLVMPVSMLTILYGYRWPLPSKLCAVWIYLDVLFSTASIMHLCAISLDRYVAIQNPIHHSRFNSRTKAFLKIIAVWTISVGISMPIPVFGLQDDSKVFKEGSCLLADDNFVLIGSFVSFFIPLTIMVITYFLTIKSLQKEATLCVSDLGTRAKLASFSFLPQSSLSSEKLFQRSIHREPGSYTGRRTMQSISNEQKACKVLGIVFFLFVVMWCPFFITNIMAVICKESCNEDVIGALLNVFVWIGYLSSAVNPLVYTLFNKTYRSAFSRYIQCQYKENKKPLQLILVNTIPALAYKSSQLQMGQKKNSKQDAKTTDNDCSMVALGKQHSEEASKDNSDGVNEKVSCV
For orientation: Calcium flux is commonly read through the fluorescence of an indicator in the cells.

The next data set deals with T2, 5-HT1A receptor (Homo sapiens, UniProt P08908).
T2 construct: expressed in transfected cells; host or cells: CHO cells, stably transfected
T2 sequence (P08908 1-422): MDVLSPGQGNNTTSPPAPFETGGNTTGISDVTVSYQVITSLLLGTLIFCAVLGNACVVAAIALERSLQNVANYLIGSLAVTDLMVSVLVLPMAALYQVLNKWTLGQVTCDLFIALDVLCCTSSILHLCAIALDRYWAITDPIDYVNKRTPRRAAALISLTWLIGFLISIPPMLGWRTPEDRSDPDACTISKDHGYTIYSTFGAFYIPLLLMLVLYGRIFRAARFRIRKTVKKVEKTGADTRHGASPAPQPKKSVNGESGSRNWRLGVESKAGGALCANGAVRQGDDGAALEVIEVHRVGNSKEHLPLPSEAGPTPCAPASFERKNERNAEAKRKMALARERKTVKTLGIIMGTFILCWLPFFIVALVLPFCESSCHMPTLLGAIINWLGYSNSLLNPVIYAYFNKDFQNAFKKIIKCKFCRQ
Kind of data set: cell-based. The following applies: agonist, Ca2+ flux; for Emax: CHO, CHO cells with Gα15, max dose, read-out: 5-HT1A % Act @ Max Dose; for EC50: CHO cells with Gα15. The procedure:
as §1

The target in a further data set is T3, 5-HT1B receptor (Homo sapiens, UniProt P28222).
T3 construct: expressed in transfected cells
T3 sequence (P28222 whole entry): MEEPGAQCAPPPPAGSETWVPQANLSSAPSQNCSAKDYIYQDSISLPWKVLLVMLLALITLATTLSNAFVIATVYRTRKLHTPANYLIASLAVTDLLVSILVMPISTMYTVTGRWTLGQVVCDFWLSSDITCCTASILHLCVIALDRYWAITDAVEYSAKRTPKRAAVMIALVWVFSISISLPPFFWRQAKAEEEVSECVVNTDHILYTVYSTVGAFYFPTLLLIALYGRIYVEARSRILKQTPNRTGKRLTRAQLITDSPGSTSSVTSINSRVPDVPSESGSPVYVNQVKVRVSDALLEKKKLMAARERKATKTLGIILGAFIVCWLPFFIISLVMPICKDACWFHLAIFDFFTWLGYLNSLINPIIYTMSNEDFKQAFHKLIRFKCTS
Kind of data set: cAMP accumulation functional assay at 5-HT1B. The class given is cell-based. To be noted: agonist, cAMP accumulation, max dose; read-out: 5-HT1B % Act @ Max Dose. The procedure:
Functional Assay at 5-HT1B. Agonist activity at 5-HT1B was determined using a CAMP accumulation protocol at WuXi AppTec (Hong Kong) Limited according to their standard protocols. Briefly, stably transfected cells were plated in an OptiPlate-384 well plate, incubated at RT for 60 mins, and cAMP standard solution (800 nM, 10 μL) was added to the blank well. Then, 10 μL detection reagent was added to each well, the plate incubated for 60 mins at RT, and the plate read using En Vision.
(Changes in cAMP serve as a functional read-out for many G protein-coupled receptors.)

Another data set has as its target T4, 5-HT2B receptor (Homo sapiens, UniProt P41595).
T4 construct: expressed in transfected cells; host or cells: HEK293, stably transfected
Kind of data set: cell-based. The class given is cell-based. The following applies: Ca2+ flux; for Emax: HEK293, agonist, HEK293, max dose, read-out: 5-HT2B % Act @ Max Dose; for EC50: agonist, HEK293. The protocol:
as §1

Data set [2] is described as follows: in vitro. The class given is in vitro ADME, mouse. The following applies: mouse, microsomes, MLM (male CD-1) 0.50 mg/mL, NADPH 1 mM, 1 μM compound, pH 7.4, 37° C., 60 min; for microsomal CLint: read-out: Intrinsic clearance (Clint); for half-life: read-out: half-life (t1/2). An excerpt:
MLM Stability Pooled MLM from male CD-1 mice (BIOIVT M00501) were used.

Data set [3] is described as follows: in vitro. The class given is in vitro ADME, rat. To be noted: rat, microsomes, RLM (male Sprague-Dawley) 0.50 mg/mL, NADPH 1 mM, 1 μM compound, pH 7.4, 37° C., 60 min; for microsomal CLint: read-out: Intrinsic clearance (Clint); for half-life: read-out: half-life (t1/2). The text has this:
RLM Stability Pooled RLM from male Sprague-Dawley rats (Xenotech R1000) were used.

For data set [4], the target named is T1, 5-HT2A receptor. Kind of data set: biochemical. The class given is binding. The arrangement: expressed in transfected cells; host or cells: HEK293, stably transfected. To be noted: [3H]ketanserin 1 nM; HEK293 stable cell line; 1 h, 25 °C. The procedure:
Affinity of the test compounds for the 5-HT2A receptor was determined in radioligand binding experiments with [^3H]ketanserin by WuXi AppTec (Hong Kong) Limited, using methods adapted from the literature and under conditions described in Table 1.

The nature of data set [5]: in vitro. The class given is in vitro ADME, human. To be noted: human, microsomes, HLM 0.50 mg/mL, NADPH 1 mM, 1 μM compound, pH 7.4, 37° C., 60 min; for microsomal CLint: read-out: Intrinsic clearance (Clint); for half-life: read-out: half-life (t1/2).

The term EC50 denotes the concentration that produces a half-maximal response. A high value points to lower potency in that assay. What is called Ki is the dissociation constant of the complex between target and ligand, obtained from inhibition or displacement. Read a high Ki as a looser hold on the target.

T4 sequence (P41595 whole entry): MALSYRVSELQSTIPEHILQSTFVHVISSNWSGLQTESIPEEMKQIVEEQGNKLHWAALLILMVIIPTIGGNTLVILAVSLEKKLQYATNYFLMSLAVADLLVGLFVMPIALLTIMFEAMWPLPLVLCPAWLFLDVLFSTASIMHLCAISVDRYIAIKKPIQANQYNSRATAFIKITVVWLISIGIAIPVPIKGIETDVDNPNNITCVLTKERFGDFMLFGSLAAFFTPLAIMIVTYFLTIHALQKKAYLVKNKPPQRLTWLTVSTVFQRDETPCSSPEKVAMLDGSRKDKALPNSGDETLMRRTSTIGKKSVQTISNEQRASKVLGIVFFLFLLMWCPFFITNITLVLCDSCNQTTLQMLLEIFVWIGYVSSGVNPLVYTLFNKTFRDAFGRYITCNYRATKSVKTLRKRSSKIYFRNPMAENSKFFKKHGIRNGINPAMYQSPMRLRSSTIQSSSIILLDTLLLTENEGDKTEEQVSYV

Regarding `C[C@H]1C[C@H](C)N1C(=O)[C@@H]1C=C2c3cccc4[nH]cc(c34)C[C@H]2N(CCCF)C1` [Compound 26, ((2S,4S)-2,4-dimethylazetidin-1-yl)((6aR,9R)-7-(3-fluoropropyl)-4,6,6a,7,8,9-hexahydroindolo[4,3-fg]quinolin-9-yl)methanone], the Emax amounted to 83.2% at 5-HT2A receptor [1], 97.9% on 5-HT1A receptor, 77.2% on 5-HT1B receptor and 101% on 5-HT2B receptor.

With `CCN(CC)C(=O)[C@@H]1C=C2c3cccc4[nH]cc(c34)C[C@H]2N(Cc2cccc3ccccc23)C1` [Compound 101, (6aR,9R)—N,N-diethyl-7-(naphthalen-1-ylmethyl)-4,6,6a,7,8,9-hexahydroindolo[4,3-fg]quinoline-9-carboxamide], the values for the Emax at 5-HT2A receptor [1], on 5-HT1A receptor and on 5-HT2B receptor were 86.5%, 61.8% and 11.7%, respectively. Besides, the EC50 at 5-HT2A receptor [1] is 271 nM; at 5-HT1A receptor, 71100 nM; at 5-HT2B receptor it was > 10000 nM. Further, the microsomal CLint in the data set “in vitro [2]” was found to be 483 µL/min/mg; in the data set “in vitro [3]” it was 525 µL/min/mg; in the data set “in vitro [5]”, 84.6 µL/min/mg. In addition, the half-life in “in vitro [2]” is 2.9 min; in “in vitro [3]” it was 2.6 min; in “in vitro [5]” it was 16.4 min. Further, the Ki at 5-HT2A receptor [4] came out at 24.5 nM.

With `CCN(CC)C(=O)[C@H]1C=C2c3cccc4[nH]cc(c34)C[C@H]2N(CC2CCCC2)C1` [Compound 90a, (6aR,9S)-7-(cyclopentylmethyl)-N,N-diethyl-4,6,6a,7,8,9-hexahydroindolo[4,3-fg]quinoline-9-carboxamide], the Emax at 5-HT2A receptor [1] was found to be 25.7%; at 5-HT1A receptor, 135%; at 5-HT2B receptor, 21.9%. Further, the EC50 was > 1000 nM on 5-HT2A receptor [1], > 100000 nM on 5-HT1A receptor and > 10000 nM at 5-HT2B receptor. Besides, the values for the microsomal CLint in the data set “in vitro [2]”, in the data set “in vitro [3]” and in “in vitro [5]” were 712 µL/min/mg, 288 µL/min/mg and 158 µL/min/mg, respectively. Also, the half-life came to 1.9 min in the data set “in vitro [2]”, 4.8 min in the data set “in vitro [3]” and 8.8 min in “in vitro [5]”. Also, the affinity at 5-HT2A receptor [4], expressed as Ki, was 55.6 nM.

Take `CC[C@@H](C)NC(=O)[C@@H]1C=C2c3cccc4[nH]cc(c34)C[C@H]2N(Cc2cccc(OC)c2)C1` [Compound 95, (6aR,9R)—N—((R)-sec-butyl)-7-(3-methoxybenzyl)-4,6,6a,7,8,9-hexahydroindolo[4,3-fg]quinoline-9-carboxamide]: the Emax turned out to be 63.8% at 5-HT2A receptor [1], 63.2% on 5-HT1A receptor and 0.13% on 5-HT2B receptor. Further, the EC50 on 5-HT2A receptor [1] is 642 nM; at 5-HT1A receptor, 42900 nM; at 5-HT2B receptor, > 10000 nM. Besides, the results for the microsomal CLint in “in vitro [2]”, in the data set “in vitro [3]” and in “in vitro [5]” were 2020 µL/min/mg, 1600 µL/min/mg and 685 µL/min/mg, respectively. Besides, the half-life in the data set “in vitro [2]” worked out at 0.7 min; in the data set “in vitro [3]”, 0.9 min; in “in vitro [5]” it was 2 min. At 5-HT2A receptor [4], this compound registered a Ki of 15.3 nM.

Turning to `CCN(CC)C(=O)[C@@H]1C=C2c3cccc4[nH]cc(c34)C[C@H]2N(Cc2ccc3ccccc3c2)C1` [Compound 100, (6aR,9R)—N,N-diethyl-7-(naphthalen-2-ylmethyl)-4,6,6a,7,8,9-hexahydroindolo[4,3-fg]quinoline-9-carboxamide], the figures for the Emax on 5-HT2A receptor [1], on 5-HT1A receptor and at 5-HT2B receptor were 74.6%, 68.4% and 18.4%, respectively. The EC50 is 1080 nM at 5-HT2A receptor [1], 20800 nM at 5-HT1A receptor and > 10000 nM on 5-HT2B receptor. Moreover, the microsomal CLint came to 117 µL/min/mg in the data set “in vitro [2]”, 167 µL/min/mg in the data set “in vitro [3]” and 43.9 µL/min/mg in “in vitro [5]”. In addition, the half-life in the data set “in vitro [2]” is 11.8 min; in “in vitro [3]”, 8.3 min; in the data set “in vitro [5]”, 31.6 min. On 5-HT2A receptor [4], this compound returned a Ki of 3.84 nM.

With `C[C@H]1C[C@H](C)N1C(=O)[C@@H]1C=C2c3cccc4[nH]cc(c34)C[C@H]2N(Cc2ccccc2)C1` [Compound 87, ((6aR,9R)-7-benzyl-4,6,6a,7,8,9-hexahydroindolo[4,3-fg]quinolin-9-yl)((2S,4S)-2,4-dimethylazetidin-1-yl)methanone], the Emax on 5-HT2A receptor [1] turned out to be 61.2%; at 5-HT1A receptor, 58.2%; at 5-HT2B receptor it was 10%. Moreover, the EC50 on 5-HT2A receptor [1] was 669 nM; on 5-HT1A receptor, 54100 nM; on 5-HT2B receptor, > 3000 nM. The results for the microsomal CLint in “in vitro [2]”, in “in vitro [3]” and in “in vitro [5]” were 681 µL/min/mg, 60.1 µL/min/mg and 97.2 µL/min/mg, respectively. Moreover, the half-life in “in vitro [2]” was determined as 2 min; in the data set “in vitro [3]” it was 23 min; in the data set “in vitro [5]”, 14.3 min. Also, at 5-HT2A receptor [4], the affinity, expressed as Ki, was 2.1 nM.

For `O=C([C@@H]1C=C2c3cccc4[nH]cc(c34)C[C@H]2N(Cc2ccccc2)C1)N1CCCC1` [Compound 84, ((6aR,9R)-7-benzyl-4,6,6a,7,8,9-hexahydroindolo[4,3-fg]quinolin-9-yl)(pyrrolidin-1-yl)methanone], the figures for the Emax on 5-HT2A receptor [1], at 5-HT1A receptor and on 5-HT2B receptor were 68.9%, 40.3% and 5.16%, respectively. The EC50 was 895 nM on 5-HT2A receptor [1], 1690 nM at 5-HT1A receptor and > 10000 nM at 5-HT2B receptor. Also, the results for the microsomal CLint in “in vitro [2]”, in “in vitro [3]” and in “in vitro [5]” were 146 µL/min/mg, 101 µL/min/mg and 89.7 µL/min/mg, respectively. For the same compound, the figures for the half-life in the data set “in vitro [2]”, in “in vitro [3]” and in the data set “in vitro [5]” were 9.5 min, 13.7 min and 15.5 min, respectively. For the same compound, the Ki on 5-HT2A receptor [4] is 17.8 nM.

Turning to `CCN(CC)C(=O)[C@@H]1C=C2c3cccc4[nH]cc(c34)C[C@H]2N(Cc2cccc(C)c2)C1` [Compound 98, (6aR,9R)—N,N-diethyl-7-(3-methylbenzyl)-4,6,6a,7,8,9-hexahydroindolo[4,3-fg]quinoline-9-carboxamide], the Emax at 5-HT2A receptor [1] came to 76.5%; at 5-HT1A receptor it was 31.2%; at 5-HT2B receptor, 3.37%. Also, the EC50 at 5-HT2A receptor [1] was 431 nM; at 5-HT1A receptor, > 100000 nM; on 5-HT2B receptor, > 10000 nM. For the same compound, the microsomal CLint came out at 470 µL/min/mg in the data set “in vitro [2]”, 717 µL/min/mg in the data set “in vitro [3]” and 91.4 µL/min/mg in “in vitro [5]”. For the same compound, the half-life in the data set “in vitro [2]” came to 3 min; in the data set “in vitro [3]”, 1.9 min; in the data set “in vitro [5]”, 15.2 min. The same compound returned a Ki on 5-HT2A receptor [4] of 8.26 nM.
